Source: patent EP0235823A2, “Carbapenem antibiotics, a process for preparing them and pharmaceutical compositions containing them” (Bristol-Myers Squibb Company, priority 1986, dated 1987)
In brackets after ≈: the same amount, converted by molar mass.

How the values were obtained:
Type in all cases: cell-based
[1] = tested on: S.aureus + 50% serum A9537S; assay: In vitro antibacterial activity, MIC by tube dilution, with 50% serum; details: Staphylococcus aureus, read-out: MIC (mcg/ml)
Text: (§1) C by tube dilution. N-formimidoyl thienamycin was included as a comparison compound.

[2] = tested on: S.pyogenes A9604; assay: In vitro antibacterial activity, MIC by tube dilution; details: Streptococcus pyogenes, Nutrient Broth, overnight incubation at 37 deg. C
Text: as §1

[3] = tested on: S.faecalis A20688; assay: as above; details: Enterococcus faecalis, Nutrient Broth, overnight incubation at 37 deg. C
Text: as §1

[4] = tested on: S.pneumoniae A9585; assay: as above; details: Streptococcus pneumoniae, Nutrient Broth, overnight incubation at 37 deg. C
Text: as §1

[5] = tested on: S.aureus A9537; assay: as above; details: Staphylococcus aureus, Nutrient Broth, overnight incubation at 37 deg. C
Text: as §1

C[C@@H](O)[C@H]1C(=O)N2C(C(=O)[O-])=C(SCC[N+]34CCN(CC3)CC4)[C@H](C)[C@H]12 [Ex. 7, (5R,6S) 3-[2-(1,4-diazabicyclo[2.2.2.]octanium-1-yl)ethylthio]-6-(1R-hydroxyethyl)-4R-methy3-7-oxo-1-azabicyclo[3.2.0]hept-2-ene-2-carboxylate]
MIC [1]: 0.13 µg/mL (≈ 0.341 µM)
MIC [2]: 0.03 µg/mL (≈ 0.0786 µM)
MIC [3]: 2 µg/mL (≈ 5.24 µM)
MIC [4]: 0.03 µg/mL (≈ 0.0786 µM)
MIC [5]: 0.5 µg/mL (≈ 1.31 µM)

CC(O)C1C(=O)N2C(C(=O)O)=C(SCCN=CN)CC12 (stereo not shown) [N-Formimidoy Thienamycin, N-formimidoyl thienamycin]
MIC [1]: 0.016 µg/mL (≈ 0.0534 µM)
MIC [2]: 0.002 µg/mL (≈ 0.00668 µM)
MIC [3]: 0.25 µg/mL (≈ 0.835 µM)
MIC [4]: 0.002 µg/mL (≈ 0.00668 µM)
MIC [5]: 0.004 µg/mL (≈ 0.0134 µM)
